Laboratory results published in US20170050957A1, “4-AMINO-6-(HETEROCYCLIC)PICOLINATES AND 6-AMINO-2-(HETEROCYCLIC)PYRIMIDINE-4-CARBOXYLATES AND THEIR USE AS HERBICIDES” (Dow AgroSciences LLC, priority 2013, published 2017).
Where two headings read alike, the source gives them in different places.

Key:
[1] = tested on: Key Broadleaf Weed and Crop Species; experiment: Post-emergent Test II herbicidal activity (Table 15); type: in vivo; details: post-emergence, 336 h, 14 d; for pest or weed control at 35 g/ha: 35 g ai/ha; for pest or weed control at 70 g/ha: 70 g ai/ha; for pest or weed control at 140 g/ha: 140 g ai/ha
In short: (§1)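 Plants grown in greenhouse (~15 h photoperiod, 23-29 °C day, 22-28 °C night) to first or second true leaf stage, then sprayed post-emergence at 187 L/ha with a high rate and 1/2×, 1/4×, 1/8× and 1/16× dilutions. Injury scored visually after 14 d, 0-100% versus untreated plants.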

[2] = tested on: Key Grass and Sedge Weeds as well as Grass Crops; experiment: Post-emergent Test II herbicidal activity (Table 16); type: in vivo; details: post-emergence, 336 h, 14 days after application; for pest or weed control at 35 g/ha: 35 g ai/ha; for pest or weed control at 70 g/ha: 70 g ai/ha; for pest or weed control at 140 g/ha: 140 g ai/ha
In short: as §1

[3] = Abutilon theophrasti, velvetleaf (Abutilon theophrasti), read-out: Visual Growth Reduction (%) 14 Days After Application, ABUTH
[4] = Brassica napus, oilseed rape, canola (Brassica napus), read-out: Visual Growth Reduction (%) 14 Days After Application, BRSNN
[5] = Chenopodium album, lambsquarters (Chenopodium album), read-out: Visual Growth Reduction (%) 14 Days After Application, CHEAL
[6] = Euphorbia heterophylla, wild poinsettia (Euphorbia heterophylla), read-out: Visual Growth Reduction (%) 14 Days After Application, EPHHL
[7] = Helianthus annuus, sunflower (Helianthus annuus), read-out: Visual Growth Reduction (%) 14 Days After Application, HELAN
[8] = Cyperus esculentus, yellow nutsedge (Cyperus esculentus), read-out: Visual Growth Reduction (%) 14 Days After Application CYPES
[9] = Echinochloa crus-galli, barnyardgrass (Echinochloa crus-galli), read-out: Visual Growth Reduction (%) 14 Days After Application ECHCG
[10] = Oryza sativa, rice (Oryza sativa), read-out: Visual Growth Reduction (%) 14 Days After Application ORYSA
[11] = Setaria faberi, giant foxtail (Setaria faberi), read-out: Visual Growth Reduction (%) 14 Days After Application SETFA
[12] = Triticum aestivum, wheat, spring (Triticum aestivum), read-out: Visual Growth Reduction (%) 14 Days After Application TRZAS
[13] = Zea mays, maize, corn (Zea mays), read-out: Visual Growth Reduction (%) 14 Days After Application ZEAMX
[14] = Amaranthus retroflexus, redroot pigweed (Amaranthus retroflexus), read-out: Visual Growth Reduction (%) 14 Days After Application, AMARE

SMILES | pest or weed control at 35 g/ha [1, 3] [%] | pest or weed control at 70 g/ha [1, 3] [%] | pest or weed control at 140 g/ha [1, 3] [%] | pest or weed control at 35 g/ha [1, 4] [%] | pest or weed control at 70 g/ha [1, 4] [%] | pest or weed control at 140 g/ha [1, 4] [%] | pest or weed control at 35 g/ha [1, 5] [%] | pest or weed control at 70 g/ha [1, 5] [%] | pest or weed control at 140 g/ha [1, 5] [%] | pest or weed control at 35 g/ha [1, 6] [%] | pest or weed control at 70 g/ha [1, 6] [%] | pest or weed control at 140 g/ha [1, 6] [%] | pest or weed control at 35 g/ha [1, 7] [%] | pest or weed control at 70 g/ha [1, 7] [%] | pest or weed control at 140 g/ha [1, 7] [%] | pest or weed control at 35 g/ha [2, 8] [%] | pest or weed control at 70 g/ha [2, 8] [%] | pest or weed control at 140 g/ha [2, 8] [%] | pest or weed control at 35 g/ha [2, 9] [%] | pest or weed control at 70 g/ha [2, 9] [%] | other results
Nc1c(Cl)c(C(=O)O)nc(-c2ccc3ccsc3c2)c1Cl [Compound 3.11] | 0 to 29 | 0 to 29 | 0 to 29 | 0 to 29 | 0 to 29 | 0 to 29 | 85 to 94 | 85 to 94 | 85 to 94 | 0 to 29 | 0 to 29 | 0 to 29 | 85 to 94 | 85 to 94 | 85 to 94 | 0 to 29 | 0 to 29 | 0 to 29 | 0 to 29 | 0 to 29 | pest or weed control at 140 g/ha [2, 9]: 0 to 29%; pest or weed control at 35 g/ha [2, 10]: 0 to 29%; pest or weed control at 70 g/ha [2, 10]: 0 to 29%; pest or weed control at 140 g/ha [2, 10]: 0 to 29%; pest or weed control at 35 g/ha [2, 11]: 0 to 29%; pest or weed control at 70 g/ha [2, 11]: 0 to 29%; pest or weed control at 140 g/ha [2, 11]: 0 to 29%; pest or weed control at 35 g/ha [2, 12]: 0 to 29%; pest or weed control at 70 g/ha [2, 12]: 0 to 29%; pest or weed control at 140 g/ha [2, 12]: 0 to 29%; pest or weed control at 35 g/ha [2, 13]: 0 to 29%; pest or weed control at 70 g/ha [2, 13]: 0 to 29%; pest or weed control at 140 g/ha [2, 13]: 0 to 29%; melting point: 239 °C (dec.)
COC(=O)c1nc(-c2ccc3ccsc3c2)c(F)c(N)c1Cl [Compound 3.12] | 60 to 74 | 95 to 100 | 95 to 100 | 0 to 29 | 0 to 29 | 30 to 44 | 95 to 100 | 95 to 100 | 95 to 100 | 60 to 74 | 60 to 74 | 85 to 94 | 85 to 94 | 85 to 94 | 85 to 94 | 0 to 29 | 0 to 29 | 0 to 29 | 85 to 94 | 85 to 94 | pest or weed control at 35 g/ha [1, 14]: 60 to 74%; pest or weed control at 70 g/ha [1, 14]: 60 to 74%; pest or weed control at 140 g/ha [1, 14]: 85 to 94%; pest or weed control at 140 g/ha [2, 9]: 85 to 94%; pest or weed control at 35 g/ha [2, 10]: 0 to 29%; pest or weed control at 70 g/ha [2, 10]: 0 to 29%; pest or weed control at 140 g/ha [2, 10]: 0 to 29%; pest or weed control at 35 g/ha [2, 11]: 0 to 29%; pest or weed control at 70 g/ha [2, 11]: 0 to 29%; pest or weed control at 140 g/ha [2, 11]: 0 to 29%; pest or weed control at 35 g/ha [2, 12]: 0 to 29%; pest or weed control at 70 g/ha [2, 12]: 0 to 29%; pest or weed control at 140 g/ha [2, 12]: 0 to 29%; pest or weed control at 35 g/ha [2, 13]: 95 to 100%; pest or weed control at 70 g/ha [2, 13]: 95 to 100%; pest or weed control at 140 g/ha [2, 13]: 95 to 100%; melting point: 185 to 189 °C
Nc1c(F)c(-c2ccc3ccsc3c2)nc(C(=O)O)c1Cl [Compound 3.13] | 0 to 29 | 0 to 29 | 75 to 84 | 0 to 29 | 0 to 29 | 60 to 74 | 85 to 94 | 95 to 100 | 95 to 100 | 0 to 29 | 0 to 29 | 60 to 74 | 85 to 94 | 85 to 94 | 85 to 94 | 0 to 29 | 0 to 29 | 0 to 29 | 60 to 74 | 60 to 74 | pest or weed control at 35 g/ha [1, 14]: 95 to 100%; pest or weed control at 70 g/ha [1, 14]: 95 to 100%; pest or weed control at 140 g/ha [1, 14]: 95 to 100%; pest or weed control at 140 g/ha [2, 9]: 75 to 84%; pest or weed control at 35 g/ha [2, 10]: 0 to 29%; pest or weed control at 70 g/ha [2, 10]: 0 to 29%; pest or weed control at 140 g/ha [2, 10]: 0 to 29%; pest or weed control at 35 g/ha [2, 12]: 0 to 29%; pest or weed control at 70 g/ha [2, 12]: 0 to 29%; pest or weed control at 140 g/ha [2, 12]: 0 to 29%; pest or weed control at 35 g/ha [2, 13]: 60 to 74%; pest or weed control at 70 g/ha [2, 13]: 60 to 74%; pest or weed control at 140 g/ha [2, 13]: 60 to 74%; melting point: 165 to 167 °C
